Experiments:
Format in all cases: biochemical
Urokinase (Abbokinase) = target: T1, Urokinase (Abbokinase) (Homo sapiens, UniProt P00749); assay: Urokinase assay, chromogenic substrate S-2444; conditions: Ki calculated using the IC50 value; 30 minute incubation, HBSA buffer; read-out: Ki uPA
T1 construct: purchased Abbott Laboratories (manufacturer), obtained from Priority Pharmaceuticals
Description: (§1) The ability of compounds of the present invention to act as selective inhibitors of urokinase catalytic activity was assessed by determining the concentration of test compound which inhibited the activity of this enzyme by 50%, (IC50), and comparing this value to that determined for all or some of the following related serine proteases: recombinant tissue plasminogen activator (rt-PA), plasmin, activated protein C, chymotrypsin, factor Xa, thrombin and trypsin.
(§2) The buffer used for all assays was HBSA (10 mM HEPES, pH 7.5, 150 mM sodium chloride, 0.1% bovine serum albumin).
(§3) The assay for IC50 determinations was conducted by combining in appropriate wells of a Corning microtiter plate, 50 microliters of HBSA, 50 microliters of the test compound at a specified concentration (covering a broad concentration range) diluted in HBSA (or HBSA alone for VO (uninhibited velocity) measurement), and 50 microliters of the enzyme diluted in HESA. Following a 30 minute incubation at ambient temperature, 50 microliters of the substrate at the concentrations specified below were added to the wells, yielding a final total volume of 200 microliters (about 4 times Km). The initial velocity of chromogenic substrate hydrolysis was measured by the change in absorbance at 405 nm using a Thermo Max® Kinetic Microplate Reader over a 5 minute period in which less than 5% of the added substrate was utilized. The concentration of added inhibitor which caused a 50% decrease in the initial rate of hydrolysis was defined as the IC50 value. Ki may be calculated from the IC50 value.
Urokinase catalytic activity was determined using the chromogenic substrate […] S-2444 (L-Pyroglutamyl-glycyl-L-arginine-p-nitroaniline hydrochloride), obtained from DiaPharma Group, Inc. Urokinase (Abbokinase), manufactured by Abbott Laboratories, was obtained from Priority Pharmaceuticals and diluted to 750 pM in the HBSA assay buffer prior to use. The assay buffer was HBS (10 mM HEPES, 150 mM sodium chloride pH 7.4) with 0.1% BSA. Ki was calculated using the IC50 value.

Human rt-PA (Activase) = target: T2, Human rt-PA (Activase) (Homo sapiens, UniProt P00750); assay: Recombinant tissue plasminogen activator (rt-PA) assay, chromogenic substrate Pefachrome t-PA; conditions: 30 minute incubation, HBSA buffer, rt-PA 1.0 nM
T2 construct: purchased Genentech Inc
Description: as §1, §2, §3
rt-PA catalytic activity was determined using the substrate, Pefachrome t-PA (CH3SO2-D-hexahydrotyrosine-glycyl-L-arginine-p-nitroaniline, obtained from Pentapharm Ltd.). The substrate was made up in deionized water followed by dilution in HBSA prior to the assay in which the final concentration was 500 micromolar (about 3-times Km). Human rt-PA (Activase®) was obtained from Genentech Inc. The enzyme was reconstituted in deionized water and diluted into HBSA prior to the assay in which the final concentration was 1.0 nM.

human plasmin = target: T3, human plasmin (Homo sapiens, UniProt P00747); assay: Plasmin assay, chromogenic substrate S-2366; conditions: 30 minute incubation, HBSA buffer, plasmin 1.0 nM
T3 construct: Purified human plasmin was obtained from Enzyme Research Laboratories, Inc; purchased Enzyme Research Laboratories, Inc
Description: as §1, §2, §3
Plasmin catalytic activity was determined using the chromogenic substrate, S-2366 [L-pyroglutamyl-L-prolyl-L-arginine-p-nitroaniline hydrochloride], which was obtained from DiaPharma Group. The substrate was made up in deionized water followed by dilution in HBSA prior to the assay in which the final concentration was 300 micromolar (about 2.5-times Km). Purified human plasmin was obtained from Enzyme Research Laboratories, Inc. The enzyme was diluted into HBSA prior to assay in which the final concentration was 1.0 nM.

T3 sequence (P00747 581-810 limits assumed): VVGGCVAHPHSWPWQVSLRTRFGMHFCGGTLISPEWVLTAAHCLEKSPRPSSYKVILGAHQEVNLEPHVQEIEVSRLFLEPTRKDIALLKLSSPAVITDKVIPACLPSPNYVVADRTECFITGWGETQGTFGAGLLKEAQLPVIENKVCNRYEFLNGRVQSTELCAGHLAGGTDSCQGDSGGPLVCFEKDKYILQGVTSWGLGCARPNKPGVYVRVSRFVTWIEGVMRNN
T3 sequence (P00747 97-580 partner limits assumed): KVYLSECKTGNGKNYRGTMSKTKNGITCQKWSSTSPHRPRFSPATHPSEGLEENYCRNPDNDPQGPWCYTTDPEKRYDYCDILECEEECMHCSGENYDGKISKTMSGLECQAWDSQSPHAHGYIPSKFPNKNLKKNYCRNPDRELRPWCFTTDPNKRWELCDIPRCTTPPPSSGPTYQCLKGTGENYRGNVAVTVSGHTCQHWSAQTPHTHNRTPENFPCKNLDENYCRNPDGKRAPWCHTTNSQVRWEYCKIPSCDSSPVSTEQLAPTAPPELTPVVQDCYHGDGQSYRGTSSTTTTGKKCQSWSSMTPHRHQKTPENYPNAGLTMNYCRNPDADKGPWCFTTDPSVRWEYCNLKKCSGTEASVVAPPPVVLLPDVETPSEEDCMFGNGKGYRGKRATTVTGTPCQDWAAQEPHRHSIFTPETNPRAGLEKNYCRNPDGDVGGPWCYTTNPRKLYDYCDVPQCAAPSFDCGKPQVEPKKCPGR
T2 sequence (P00750 36-562): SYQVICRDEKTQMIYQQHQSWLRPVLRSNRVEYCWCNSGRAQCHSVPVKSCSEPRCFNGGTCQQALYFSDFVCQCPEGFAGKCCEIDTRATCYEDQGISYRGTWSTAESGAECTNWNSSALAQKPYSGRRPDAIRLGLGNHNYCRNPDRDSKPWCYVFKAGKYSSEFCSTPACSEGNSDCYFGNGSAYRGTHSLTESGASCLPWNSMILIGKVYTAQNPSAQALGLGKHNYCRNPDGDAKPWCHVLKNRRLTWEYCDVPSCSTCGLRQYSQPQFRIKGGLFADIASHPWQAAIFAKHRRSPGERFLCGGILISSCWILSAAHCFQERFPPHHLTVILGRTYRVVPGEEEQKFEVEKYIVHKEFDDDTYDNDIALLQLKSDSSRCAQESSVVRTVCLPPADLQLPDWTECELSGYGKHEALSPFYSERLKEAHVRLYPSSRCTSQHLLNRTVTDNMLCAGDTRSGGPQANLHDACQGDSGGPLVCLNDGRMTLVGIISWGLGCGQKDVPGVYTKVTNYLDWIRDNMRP

Row | SMILES | Ki (Urokinase (Abbokinase)) [nM] | IC50 (Human rt-PA (Activase)) [nM] | IC50 (human plasmin) [nM]
1 | C[C@H](NC(=O)[C@@H](CO)NS(=O)(=O)Cc1ccccc1)C(=O)NCc1ccc(NC(=N)N)s1 [AW] | 250 to 2500 | > 2500 | > 2500
2 | C[C@H](NC(=O)[C@@H](C)NS(=O)(=O)Cc1ccccc1)C(=O)NCc1ccc(C(=N)N)cc1 [AK] | < 100 | > 2500 | > 2500
3 | CCCCS(=O)(=O)NC(CO)C(=O)N1CCCC1C(=O)NCc1ccc(C(=N)N)cc1 (mixture of isomers) [N] | < 100 | > 2500 | > 2500
4 | CCCCS(=O)(=O)N[C@H](CO)C(=O)N1CCC1C(=O)NCc1ccc(C(=N)N)cc1 (stereo partly drawn) [Z] | < 100 | > 2500 | > 2500
5 | C[C@H](NC(=O)[C@@H](CO)NS(C)(=O)=O)C(=O)NCc1ccc(C(=N)N)cc1 [AU] | 250 to 2500 | > 2500 | > 2500
6 | N=C(N)Nc1ccc(CNC(=O)[C@@H]2C=CCN2C(=O)[C@@H](CO)NS(=O)(=O)Cc2ccccc2)cc1 [AV] | < 100 | > 2500 | > 2500
7 | CCCCS(=O)(=O)NC(CO)C(=O)N1CC=CC1C(=O)NCc1ccc(C(=N)N)cc1 (mixture of isomers) [O] | < 100 | > 2500 | > 2500
8 | CCCCS(=O)(=O)N[C@H](CO)C(=O)N[C@@H](C)C(=O)NCCCCNC(=N)N [B] | 250 to 2500 | > 2500 | > 2500
9 | C[C@@H](NC(=O)[C@@H](CO)NS(=O)(=O)c1cccc2ccccc12)C(=O)NCc1ccc(C(=N)N)cc1 [AP] | < 100 | > 2500 | > 2500
10 | C=CC[C@H](NC(=O)[C@@H](CO)NS(=O)(=O)Cc1ccccc1)C(=O)NCc1ccc(C(=N)N)cc1 [AL] | < 100 | > 2500 | > 2500
11 | CCCCS(=O)(=O)NC(CO)C(=O)N1CC2CC2C1C(=O)NCc1ccc(C(=N)N)cc1 (mixture of isomers) [AA] | < 100 | > 2500 | > 2500
12 | CC[C@H](NC(=O)[C@@H](CO)NS(=O)(=O)Cc1ccccc1)C(=O)NCc1ccc(C(=N)N)cc1 [AT] | < 100 | > 2500 | > 2500
13 | C[C@H](NC(=O)[C@@H](CO)NS(=O)(=O)Cc1ccccc1)C(=O)NCc1ccc(C(=N)N)cc1 [AJ] | – | > 2500 | > 2500
14 | N=C(N)c1ccc(CNC(=O)C2C3CC3CN2C(=O)C(CO)NS(=O)(=O)Cc2ccccc2)cc1 (stereo not drawn) [AD] | < 100 | > 2500 | 250 to 2500
15 | CCCCS(=O)(=O)NC(CO)C(=O)NC(C)C(=O)NCc1ccc(NC(=N)N)cc1 (stereo not drawn) [AG] | < 100 | > 2500 | > 2500
16 | N=C(N)c1ccc(CNC(=O)[C@@H]2C3CC3CN2C(=O)[C@@H](CO)NS(=O)(=O)Cc2ccccc2)cc1 (stereo partly drawn) [T] | < 100 | > 2500 | 250 to 2500

Row | SMILES | Ki (Urokinase (Abbokinase)) [nM] | IC50 (Human rt-PA (Activase)) [nM] | IC50 (human plasmin) [nM]
17 | CCCCS(=O)(=O)N[C@H](CO)C(=O)N1CC2CC2C1C(=O)NCc1ccc(C(=N)N)cc1 (stereo partly drawn) [Q] | < 100 | > 2500 | > 2500
18 | C[C@H](NC(=O)[C@@H](CO)NS(=O)(=O)c1ccc2ccccc2c1)C(=O)NCc1ccc(C(=N)N)cc1 [AI] | 100 to 250 | > 2500 | > 2500
19 | C[C@H](NC(=O)[C@@H](CO)NS(=O)(=O)Cc1ccccc1)C(=O)NCc1ccc(NC(=N)NC(=O)OC(C)(C)C)cc1 [AM] | < 100 | > 2500 | > 2500
20 | N=C(N)c1ccc(CNC(=O)[C@@H]2CCCN2C(=O)[C@@H](CO)NS(=O)(=O)Cc2ccccc2)cc1 [J] | – | > 2500 | 250 to 2500
21 | N=C(N)c1ccc(CNC(=O)[C@@H]2C=CCN2C(=O)[C@@H](CO)NS(=O)(=O)CCc2ccccc2)cc1 [F] | < 100 | > 2500 | –
22 | C[C@H](NC(=O)[C@@H](CO)NS(=O)(=O)Cc1ccccc1)C(=O)NCc1ccc(NC(=N)N)cc1 [AN] | < 100 | > 2500 | > 2500
23 | N=C(N)c1ccc(CNC(=O)[C@@H]2CCN2C(=O)[C@@H](CO)NS(=O)(=O)Cc2ccccc2)cc1 [R] | < 100 | > 2500 | > 2500
24 | CCCCS(=O)(=O)N[C@H](CO)C(=O)N[C@@H](C)C(=O)NCc1ccc(C(=N)N)cc1 [A] | < 100 | > 2500 | > 2500
25 | CCC[C@H](NC(=O)[C@@H](CO)NS(=O)(=O)Cc1ccccc1)C(=O)NCc1ccc(C(=N)N)cc1 [AS] | < 100 | > 2500 | > 2500
26 | C[C@H](NC(=O)[C@@H](CO)NS(=O)(=O)Cc1ccccc1)C(=O)NCc1ccc(C(=N)N)cn1 [AO] | 100 to 250 | > 2500 | > 2500
27 | N=C(N)c1ccc(CNC(=O)C2C=CCN2C(=O)C(CO)NS(=O)(=O)Cc2ccccc2)s1 (mixture of isomers) [U] | < 100 | 250 to 2500 | 250 to 2500
28 | N=C(N)Nc1ccc(CNC(=O)Cn2cccc(NS(=O)(=O)Cc3ccccc3)c2=O)cc1 [AR] | 250 to 2500 | > 2500 | > 2500
29 | CCCCS(=O)(=O)N[C@H](CO)C(=O)N[C@@H](C)C(=O)NCc1ccc(C(=N)N)s1 [L] | < 100 | > 2500 | > 2500
30 | N=C(N)c1ccc(CNC(=O)[C@@H]2C=CCN2C(=O)[C@@H](CO)NS(=O)(=O)Cc2ccccc2)cc1 [K] | < 100 | > 2500 | 250 to 2500
31 | N=C(N)c1ccc(CNC(=O)[C@@H]2CCN2C(=O)[C@@H](CO)NS(=O)(=O)CCc2ccccc2)cc1 [S] | 100 to 250 | > 2500 | > 2500
32 | C[C@H](NC(=O)[C@@H](CO)NS(=O)(=O)Cc1ccccc1)C(=O)NCc1ccc(C(=N)N)s1 [AH] | < 100 | 250 to 2500 | > 2500

— patent US6586405B2, “Non-covalent inhibitors of urokinase and blood vessel formation” (Corvas International, Inc., priority 2000, dated 2003)
